Source: patent US20090226408A1, “ANTI-FATIGUE COMPOSITION” (KANEKA CORPORATION, priority 2005, published 2009)

Test system: Sprague-Dawley male rats
Test: Treadmill test using young rat (maximum running time)
Format: in vivo
Settings: reduced coenzyme Q10 100 mg/kg, lipoic acid 30 mg/kg; for extension of the maximum running time (after the sample administration relative to before the administration), Average: Sprague-Dawley male rats 7 to 10 week old, oral in 0.5% CMC-Na, before vs three hours after administration; for extension of the maximum running time, significance: single agents: before vs after administration, combination: compared to control group, oral, three hours after administration
Method: Using Sprague-Dawley male rats (7 to 10 week old, n=20), anti-fatigue effects brought about by reduced coenzyme Q10 alone (about 2% of oxidized coenzyme Q10 included), lipoic acid alone, and combination use of reduced coenzyme Q10 and lipoic acid were evaluated with a treadmill. In the test, rats were run at a speed of 10 m/min using a treadmill apparatus (model NK-73-4 made by Natume Seisakusho Co., Ltd.), and the speed was increased stepwise, by 5 m/min every 3 min, and the time when the rats became unable to run (maximum running time) was measured.
As substances to be tested, 0.5% sodium carboxymethylcellulose (CMC-Na) aqueous solutions of reduced coenzyme Q10 (about 2% oxidized coenzyme Q10 included) or lipoic acid (α-lipoic acid (manufactured by Tokyo Chemical Industry Co., Ltd.)) were each prepared and the solutions were orally administered to rats at a dose of 100 mg/kg for reduced coenzyme Q10 or at a dose of 30 mg/kg for lipoic acid. Rats were divided into four groups of a solvent administered group, reduced coenzyme Q10 only administered group, lipoic acid only administered group, and a reduced coenzyme Q10 and lipoic acid combined group (reduced coenzyme Q10 and lipoic acid were administered almost simultaneously). The maximum running time was measured before and three hours after the administration and an extension of the maximum running time (after the sample administration relative to before the administration) was calculated. A 0.5% CMC-Na aqueous solution was administered to the control group.

In the case of `O=C(O)CCCCC1CCSS1` (stereo not shown) [Lipoic acid, 1,2-dithioran-3-pentanoic acid], the “extension of the maximum running time (after the sample administration relative to before the administration), Average” value is reported as 7.3 s and the “extension of the maximum running time, significance” value is reported as “no significant extension”.
With `COc1c(O)c(C)c(C/C=C(\C)CC/C=C(\C)CC/C=C(\C)CC/C=C(\C)CC/C=C(\C)CC/C=C(\C)CC/C=C(\C)CC/C=C(\C)CC/C=C(\C)CCC=C(C)C)c(O)c1OC` [Reduced coenzyme Q10, reduced coenzyme Q10] the “extension of the maximum running time (after the sample administration relative to before the administration), Average” value was 17.5 s and the “extension of the maximum running time, significance” value was “no significant extension”.
